Where two headings read alike, the source gives them in different places.
Experiments:
[1] = test system: liver fibrosis due to chronic Hepatitis B; assay: Phase II study in subjects with liver fibrosis due to chronic Hepatitis B, 52 weeks, Entecavir basic treatment (Examples 11-21); format: in vivo, human
Method: This is a Phase II, randomized, double-blind, placebo-controlled, Entecavir-Basic Treatment, multi-center, dose-ranging study on the efficacy and safety of Hydronidone when administered to Chinese subjects with liver fibrosis due to chronic Hepatitis B for 52 consecutive weeks.
Approximately 240 eligible subjects, approximately 60 subjects per dose cohort, are planned to be enrolled in the study and treated daily with Hydronidone oral doses of 30 mg, 60 mg. or 120 mg TID (total daily doses of […], […], and 360 mg, respectively) for 52 consecutive weeks or placebo, concomitantly with basic anti-viral treatment with Entecavir at a daily dose of 0.5 mg. In parallel, a group of 12 subjects will be evaluated for PK.

[2] = PK study of single ascending oral doses in healthy volunteers (Example 7); format: in vivo, human; conditions: for CL renal / AUC / AUC(0-t) / Cmax / Tmax: male, human; for CL renal: plasma and urine; for CL renal / AUC / AUC(0-t) / Cmax / Tmax / Cl_F_pred / HL_Lambda_z / Lambda_z / Vz_F_pred: fasted; for CL renal / AUC / AUC(0-t) / Cmax / Cl_F_pred / HL_Lambda_z / Lambda_z / Vz_F_pred / Amount_Recovered / Percent_Recovered (urinary percentage of Hydronidone): n = 12, Mean(SD); for AUC / AUC(0-t) / Cmax / Tmax: plasma; for AUC: healthy Chinese subjects, read-out: AUCINE_pred; for Tmax: n = 12, Median (Min-Max); for Amount_Recovered / Percent_Recovered (urinary percentage of Hydronidone): urine
Method: This was randomized, open-label, 4-period, crossover PK study of single ascending oral doses of Hydronidone in healthy volunteers.
Ascending single oral doses of 200 mg, 400 mg, 600 mg and 800 mg of Hydronidone were given to 12 eligible, healthy male Chinese subjects, 26-38 years of age, satisfying all inclusion and exclusion criteria, and randomly divided into four dose groups, 3 subjects per group, under fasted conditions. According to the Williams Design, the subjects in each group were treated with Hydronidone at four different doses in four periods. The PK blood samples were collected at: 0 (pre-dose), 10 min, 20 min, 30 min, 40 min, 1 hr, 1.5 hr, 2 hr, 3 hr, 4 hr, 5 hr, 6 hr, 8 hr, 10 hr, 12 hr, 16 hr, and 24 hr, and 48 hr post-dose. The subjects also provided PK urine samples at 0 (pre-dose), 5 hr, 12 hr, and 24 hr post-dose. There was additional 24 hr washout period after the end of collection of PK samples, a total of 48 hrs between the first and the next dose level administration. Blood and urine samples were analysed for determination of plasma and urine concentrations of Hydronidone and its metabolites (M3).

[3] = biological target: human CYP 2C9 (Homo sapiens, UniProt P11712); assay: CYP450 inhibition, fluorescence of metabolic substrates
Method: (§1) In vitro study investigated whether Hydronidone is inhibitor for human cytochrome P450 (CYP450). The effects of different Hydronidone concentrations were determined by the fluorescence intensity of metabolic substrates of CYP1A2, 2C9, 2C19, 2 D6 and 3A4, produced under the effect of the relevant enzyme. The respective IC50 value were calculated in the event of observed inhibition with hydronidone.

[4] = biological target: human CYP 3A4 (Homo sapiens, UniProt P08684); assay: as above
Method: as §1

[5] = biological target: human CYP 2 D6 (Homo sapiens, UniProt P10635); assay: as above
Method: as §1

[6] = biological target: human CYP 2C19 (Homo sapiens, UniProt P33261); assay: as above
Method: as §1

[7] = Parallel group PK study of multiple ascending oral doses (Example 9); format: in vivo, human
Method: This was randomized, open-label, parallel group PK study of multiple ascending oral doses of Hydronidone in healthy Chinese subjects.
In this study, ascending oral doses of Hydronidone of 200 mg, 400 mg, and 600 mg TID, were administered to 27 healthy subjects (15 males and 12 females) divided into 3 groups (9 subjects/group), for four (4) consecutive days. This was an inpatient study. Hydronidone was administered under fasted conditions. Blood and urine samples were collected for PK assessments. The PK assessments were performed upon single (after the first dose) and multiple dosing. Standard safety evaluations were also performed including physical examination, ECG, hematology, serum biochemistry and urinalysis.

[8] = In vitro Phase I metabolism in human liver microsomes; format: in vitro ADME
Method: The in vitro Phase I metabolism of hydronidone was evaluated by incubating human liver microsomes with hydronidone for 60 minutes.

Cc1ccc(=O)n(-c2ccc(O)cc2)c1 [Hydronidone, N-(4-hydroxyphenyl)-5-Methyl-2-pyridone]
Ishak score improvement in patients of significant fibrosis ([1]; 52 weeks): consistent with the results of primary endpoint analysis | improvement in HBeAg(−) vs HBeAg(+) patients ([1]; 52 weeks): better than in HbeAg(+) patients | response in HBV DNA+ patients ([1]; HBV DNA+ after 52 weeks Entecavir therapy, Ishak>3): all patients (Ishak>3) responded | Ishak score ≥1 (primary endpoint) ([1]; after 52 weeks of therapy, with Entecavir): significantly lower the Ishak score | intra group Ishak score change ([1]; after 52 weeks, all drug groups): statistically significant decline of Ishak score≥1 | change of liver stiffness measurement LSM ([1]; after 52 weeks, all drug groups, intra group P<0.01): decline of LSM(kPa) | Ishak score changes ([1]; baseline HBeAg (+) patients after 52 weeks): statistical significant changes when dose groups are combined | Ishak score changes ([1]; baseline HBeAg (−) patients after 52 weeks): statistical significant changes when dose groups are combined | fibrosis in patients of significant fibrosis and cirrhosis ([1]; combination of 270 mg and 360 mg groups): can improve fibrosis | fibrosis in patients of significant fibrosis and cirrhosis ([1]; combination of all drug groups): can improve fibrosis | LSM scores ([1]; combination of drug groups, Advanced Fibrosis (Ishak≥4)): showed statistical significance | best dose group (patients of significant fibrosis) ([1]; total daily dose, 52 weeks): 270 mg | amount of intact drug excreted via urine during 48 h ([2]; first of four values (doses 200, 400, 600, 800 mg): 200 mg): 82.25 ± 40.95 mg | amount of intact drug excreted via urine during 48 h ([2]; fourth of four values: 800 mg): 234.72 ± 210.50 mg | CL renal ([2]; single oral dose 200 mg): 14.7 mL/min | CL renal ([2]; single oral dose 400 mg): 11.1 mL/min | CL renal ([2]; single oral dose 600 mg): 9.83 mL/min | CL renal ([2]; single oral dose 800 mg): 8.7 mL/min | AUC ([2]; single oral dose 200 mg): 1380 ng·h/mL | AUC(0-t) ([2]; single oral dose 200 mg): 1360 ng·h/mL | Cmax ([2]; single oral dose 200 mg): 715 ng/mL | Tmax ([2]; single oral dose 200 mg): 19.8 min | AUC ([2]; single oral dose 400 mg): 2800 ng·h/mL | AUC(0-t) ([2]; single oral dose 400 mg): 2780 ng·h/mL | Cmax ([2]; single oral dose 400 mg): 1400 ng/mL | Tmax ([2]; single oral dose 400 mg): 19.8 min | AUC ([2]; single oral dose 600 mg): 5010 ng·h/mL | AUC(0-t) ([2]; single oral dose 600 mg): 4920 ng·h/mL | Cmax ([2]; single oral dose 600 mg): 2500 ng/mL | Tmax ([2]; single oral dose 600 mg): 40.2 min | AUC ([2]; single oral dose 800 mg): 6310 ng·h/mL | AUC(0-t) ([2]; single oral dose 800 mg): 6290 ng·h/mL | Cmax ([2]; single oral dose 800 mg): 2960 ng/mL | Tmax ([2]; single oral dose 800 mg): 40.2 min | amount of intact drug excreted via urine during 48 h ([2]; second of four values: 400 mg): 183.75 ± 142.14 mg | Cl_F_pred ([2]; single oral dose 200 mg): 154(39.65) L/hr | HL_Lambda_z ([2]; single oral dose 200 mg): 6.9(2.06) hr | Lambda_z ([2]; single oral dose 200 mg): 0.1093(0.03) l/hr | Vz_F_pred ([2]; single oral dose 200 mg): 1540(644.41) L | Cl_F_pred ([2]; single oral dose 400 mg): 154(44.83) L/hr | HL_Lambda_z ([2]; single oral dose 400 mg): 5.26(1.58) hr | Lambda_z ([2]; single oral dose 400 mg): 0.1434(0.04) l/hr | Vz_F_pred ([2]; single oral dose 400 mg): 1180(530.69) L | Cl_F_pred ([2]; single oral dose 600 mg): 129(35.67) L/hr | HL_Lambda_z ([2]; single oral dose 600 mg): 6.46(2.07) hr | Lambda_z ([2]; single oral dose 600 mg): 0.1141(0.02) l/hr | Vz_F_pred ([2]; single oral dose 600 mg): 1180(407.19) L | Cl_F_pred ([2]; single oral dose 800 mg): 134(35.93) L/hr | HL_Lambda_z ([2]; single oral dose 800 mg): 5.54(0.86) hr | Lambda_z ([2]; single oral dose 800 mg): 0.1278(0.02) l/hr | Vz_F_pred ([2]; single oral dose 800 mg): 1080(336.89) L | safety and tolerability ([2]; single oral doses of 200, 400, 600, 800 mg, Chinese healthy subjects): safe and well tolerated with no adverse events nor SAEs reported | amount of intact drug excreted via urine during 48 h ([2]; third of four values: 600 mg): 218.93 ± 182.73 mg | Amount_Recovered ([2]; single oral dose 200 mg): 1.27(1.34) L*mg/L | Percent_Recovered (urinary percentage of Hydronidone) ([2]; single oral dose 200 mg): 0.634±0.57% | Percent_Recovered (urinary percentage of Hydronidone) ([2]; single oral dose 200 mg, listed as hydronidone): 0.634(0.57) % | Amount_Recovered ([2]; single oral dose 400 mg): 1.92(0.87) L*mg/L | Percent_Recovered (urinary percentage of Hydronidone) ([2]; single oral dose 400 mg): 0.479±0.22% | Percent_Recovered (urinary percentage of Hydronidone) ([2]; single oral dose 400 mg, listed as hydronidone): 0.479(0.22) % | Amount_Recovered ([2]; single oral dose 600 mg): 2.86(1.19) L*mg/L | Percent_Recovered (urinary percentage of Hydronidone) ([2]; single oral dose 600 mg): 0.476±0.2% | Percent_Recovered (urinary percentage of Hydronidone) ([2]; single oral dose 600 mg, listed as hydronidone): 0.476(0.2) % | Amount_Recovered ([2]; single oral dose 800 mg): 3.22(2.03) L*mg/L | Percent_Recovered (urinary percentage of Hydronidone) ([2]; single oral dose 800 mg): 0.403±0.25% | Percent_Recovered (urinary percentage of Hydronidone) ([2]; single oral dose 800 mg, listed as hydronidone): 0.403(0.25) % | IC50 [3]: > 100 µM | IC50 [4]: > 100 µM | IC50 [5]: > 100 µM | IC50 [6]: > 100 µM | number of adverse events reported ([7]; 200 mg TID and 400 mg TID multiple-dose groups, mild): 7 adverse events | dose proportionality of exposure ([7]; 200-600 mg TID): increasing with the dose but without strict dose proportionality | deaths and SAEs ([7]; 200-600 mg TID, 4 days): No deaths nor SAEs were reported | safety and tolerability ([7]; 200-600 mg TID, 4 days): safe and well tolerated | exposure by sex ([7]; across dose levels): Male subjects had lower exposures as compared to female subjects | Tmax ([7]; both sexes, human, plasma, oral, 200, 400, 600 mg TID, fasted, healthy Chinese subjects): ~60 min | accumulation ([7]; single vs multiple dosing, TID for 4 days): no obvious accumulation | plasma level at 36 hrs. post-dose ([7]; upon single dosing, parent drug and major metabolites): undetectable | formation of metabolites [8]: no formation of metabolites was observed
